Data published in US6534522B2, “Subtype-selective NMDA receptor ligands and the use thereof” (Warner-Lambert Company, priority 1995, dated 2003).
Where a name gives a salt, the structure may show the parent alone. Read-outs that look alike come from different tables or passages of the source.

What was measured:
NR1A/2A NMDA receptor = NR1A/2A NMDA receptor (Rattus norvegicus, UniProt P35439+Q00959); experiment: Xenopus oocyte expression system, two-electrode voltage clamp, NR1A/2A; type: cell-based
Chain of NR1A/2A NMDA receptor (Q00959 20-1464 limits assumed, other chains not shown): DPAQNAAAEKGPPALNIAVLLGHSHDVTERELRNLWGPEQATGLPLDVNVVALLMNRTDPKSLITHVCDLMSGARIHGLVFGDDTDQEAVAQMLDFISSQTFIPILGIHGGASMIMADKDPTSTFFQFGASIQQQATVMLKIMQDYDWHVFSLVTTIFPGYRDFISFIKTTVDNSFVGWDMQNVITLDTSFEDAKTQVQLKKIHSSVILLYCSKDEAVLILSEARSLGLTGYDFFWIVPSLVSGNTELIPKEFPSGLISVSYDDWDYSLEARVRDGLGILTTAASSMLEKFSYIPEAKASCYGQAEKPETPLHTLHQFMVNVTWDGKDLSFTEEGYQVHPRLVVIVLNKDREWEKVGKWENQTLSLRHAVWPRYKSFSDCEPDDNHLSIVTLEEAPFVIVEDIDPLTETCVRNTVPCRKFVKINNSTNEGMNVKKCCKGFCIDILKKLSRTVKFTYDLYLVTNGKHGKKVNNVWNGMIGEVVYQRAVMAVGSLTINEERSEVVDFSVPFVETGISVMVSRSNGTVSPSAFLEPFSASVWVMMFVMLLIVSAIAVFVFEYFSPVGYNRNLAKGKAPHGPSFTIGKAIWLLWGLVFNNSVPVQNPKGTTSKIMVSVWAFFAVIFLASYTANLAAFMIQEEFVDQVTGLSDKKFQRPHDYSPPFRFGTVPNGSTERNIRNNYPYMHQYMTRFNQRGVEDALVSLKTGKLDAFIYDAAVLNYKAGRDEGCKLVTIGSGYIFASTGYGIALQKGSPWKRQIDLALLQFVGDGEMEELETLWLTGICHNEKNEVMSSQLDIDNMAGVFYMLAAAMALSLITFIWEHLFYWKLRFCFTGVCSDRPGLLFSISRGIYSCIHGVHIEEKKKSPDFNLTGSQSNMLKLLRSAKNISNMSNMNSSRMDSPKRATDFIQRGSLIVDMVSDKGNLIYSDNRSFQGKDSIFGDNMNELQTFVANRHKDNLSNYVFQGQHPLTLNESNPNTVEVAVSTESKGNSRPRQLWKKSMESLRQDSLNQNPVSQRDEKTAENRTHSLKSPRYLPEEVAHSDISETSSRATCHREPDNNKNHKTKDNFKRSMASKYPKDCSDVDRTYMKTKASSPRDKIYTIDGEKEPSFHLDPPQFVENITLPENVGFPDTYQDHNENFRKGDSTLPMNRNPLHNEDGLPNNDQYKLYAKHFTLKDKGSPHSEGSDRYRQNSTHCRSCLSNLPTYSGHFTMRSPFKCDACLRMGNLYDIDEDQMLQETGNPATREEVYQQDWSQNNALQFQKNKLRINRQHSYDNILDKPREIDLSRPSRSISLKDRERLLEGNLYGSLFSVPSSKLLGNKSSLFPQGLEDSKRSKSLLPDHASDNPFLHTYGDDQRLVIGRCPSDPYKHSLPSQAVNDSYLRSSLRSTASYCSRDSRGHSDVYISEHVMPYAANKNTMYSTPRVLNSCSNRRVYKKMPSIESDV
Source text: (§1) Electrophysiological assays may be utilized to characterize the actions of potential subtype-selective ligands at NMDA receptors expressed in Xenopus oocytes. The ligand may be assayed at the different subunit combinations of cloned rat NMDA receptors corresponding to the four putative NMDA receptor subtypes (Moriyoshi et al., Nature (Lond.) 354:31-37 (1991); Monyer et al., Science (Washington, D.C.) 256:1217-1221 (1992); Kutsuwada et al., Nature (Lond.) 358:36-41 (1992); Sugihara et al., Biochem. Biophys. Res. Comm. 185:826-832 (1992)).
(§2) Using fixed saturating concentrations of agonists (glutamate 100 μM, glycine 1-10 μM depending on subunit combination), the inhibitory potency of a putative subtype-selective ligand may be assayed at the NMDA receptors assembled from NR1A/2A, NR1A/2B, NR1A/2C and NR1A/2D subunit combinations.
(§3) The Xenopus oocyte expression system. Mature female Xenopus laevis were anaesthetized (20-40 min) using 0.15% 3-aminobenzoic acid ethyl ester (MS-222) and 2-4 ovarian lobes were surgically removed. Oocytes at developmental stages IV-VI (Dumont, J. N., J. Morphol. 136:153-180 (1972)), were dissected from the ovary still surrounded by enveloping ovarian tissues. Follicle-enclosed oocytes were micro-injected with 1:1 mixtures of cRNA:NR1A+NR2A, 2B, 2C or 2D; injecting ˜2, 5, or 20 ng of RNA encoding each receptor subunit. NR1A encoding cRNA was injected alone at ˜20 ng. Oocytes were stored in Barth's medium containing (in mM): NaCl, 88; KCl, 1; CaCl2, 0.41; Ca(NO3)2, 0.33; MgSO4, 0.82; NaHCO3, 2.4; HEPES 5; pH 7.4, with 0.1 mg/mL gentamycin sulphate. While oocytes were still surrounded by enveloping ovarian tissues the Barth's medium was supplemented with 0.1% bovine serum. Oocytes were defolliculated 1-2 days following injections by treatment with collagenase (0.5 mg/mL Sigma Type I for 0.5-1 hr) (Miledi and Woodward, J. Physiol. (Lond.) 416:601-621 (1989)) and subsequently stored in serum-free medium.
(§4) Electrical recordings were made using a conventional two-electrode voltage clamp (Dagan TEV-200) over periods ranging between 3-21 days following injection. Oocytes were placed in a 0.1 mL recording chamber continuously perfused (5-15 mL min^−1) with frog Ringer's solution containing (in mM): NaCl, 115; KCl, 2; CaCl2, 1.8; HEPES, 5; pH 7.4. Drugs were applied by bath perfusion. When using the more rapid flow rates, half-times for mid-chamber solution changes were between 2-3 sec, however, exchange rates for drug solutions at the oocyte surface (i.e. beneath the vitelline envelope and among the tangles of microvilli) were probably considerably longer (Woodward et al., Mol. Pharmacol. 41:89-103 (1992)). Zero-Ca^2+/Ba^2+ Ringer had the composition (in mM): NaCl, 115; KCl, 2; BaCl2, 1.8; HEPES, 5; pH 7.4. Intraoocyte injections were made by pneumatic pressure-pulse ejection from micropipettes (Miledi and Parker, J. Physiol. (Lond.) 357:173-183 (1984)). Injection solutions of EGTA (40-400 mM) and BAPTA (50-500 mM) were made up in H2O, pH adjusted to 7.4 with KOH or HCl, and filtered to minimize plugging (Acrodisc-13, […]). Pressure was set between 200-400 kPa. The volume of injections was regulated by adjusting the time of pulses (0.1-1 sec) and was estimated by measuring the diameters of ejected droplets.
(§5) Concentration-inhibition curves were fit with equation 2.
(§6) I/Icontrol=1/(1+([antagonist]/10^−pIC50)^n) Eq. 2
(§7) in which Icontrol is the current evoked by agonists alone, pIC50=−log IC50, […] is the concentration of antagonist that produces half maximal inhibition, and n is the slope factor. For incomplete curves analysis by fitting was unreliable and IC50 values were calculated by simple regression over linear portions of the curves (Origin: Microcal Software).
(§8) Drugs were initially dissolved at concentrations of 10-100 mM in DMSO. Dilutions were then made to generate a series of DMSO stock solutions over the range 10 μM to 100 mM. Working solutions were made by 1000-3000 fold dilution of stocks into Ringer. […]

NR1A/2B NMDA receptor = NR1A/2B NMDA receptor (Rattus norvegicus, UniProt P35439+Q00960); experiment: Xenopus oocyte expression system, two-electrode voltage clamp, NR1A/2B; type: cell-based
Chain of NR1A/2B NMDA receptor (Q00960 27-1482, other chains not shown): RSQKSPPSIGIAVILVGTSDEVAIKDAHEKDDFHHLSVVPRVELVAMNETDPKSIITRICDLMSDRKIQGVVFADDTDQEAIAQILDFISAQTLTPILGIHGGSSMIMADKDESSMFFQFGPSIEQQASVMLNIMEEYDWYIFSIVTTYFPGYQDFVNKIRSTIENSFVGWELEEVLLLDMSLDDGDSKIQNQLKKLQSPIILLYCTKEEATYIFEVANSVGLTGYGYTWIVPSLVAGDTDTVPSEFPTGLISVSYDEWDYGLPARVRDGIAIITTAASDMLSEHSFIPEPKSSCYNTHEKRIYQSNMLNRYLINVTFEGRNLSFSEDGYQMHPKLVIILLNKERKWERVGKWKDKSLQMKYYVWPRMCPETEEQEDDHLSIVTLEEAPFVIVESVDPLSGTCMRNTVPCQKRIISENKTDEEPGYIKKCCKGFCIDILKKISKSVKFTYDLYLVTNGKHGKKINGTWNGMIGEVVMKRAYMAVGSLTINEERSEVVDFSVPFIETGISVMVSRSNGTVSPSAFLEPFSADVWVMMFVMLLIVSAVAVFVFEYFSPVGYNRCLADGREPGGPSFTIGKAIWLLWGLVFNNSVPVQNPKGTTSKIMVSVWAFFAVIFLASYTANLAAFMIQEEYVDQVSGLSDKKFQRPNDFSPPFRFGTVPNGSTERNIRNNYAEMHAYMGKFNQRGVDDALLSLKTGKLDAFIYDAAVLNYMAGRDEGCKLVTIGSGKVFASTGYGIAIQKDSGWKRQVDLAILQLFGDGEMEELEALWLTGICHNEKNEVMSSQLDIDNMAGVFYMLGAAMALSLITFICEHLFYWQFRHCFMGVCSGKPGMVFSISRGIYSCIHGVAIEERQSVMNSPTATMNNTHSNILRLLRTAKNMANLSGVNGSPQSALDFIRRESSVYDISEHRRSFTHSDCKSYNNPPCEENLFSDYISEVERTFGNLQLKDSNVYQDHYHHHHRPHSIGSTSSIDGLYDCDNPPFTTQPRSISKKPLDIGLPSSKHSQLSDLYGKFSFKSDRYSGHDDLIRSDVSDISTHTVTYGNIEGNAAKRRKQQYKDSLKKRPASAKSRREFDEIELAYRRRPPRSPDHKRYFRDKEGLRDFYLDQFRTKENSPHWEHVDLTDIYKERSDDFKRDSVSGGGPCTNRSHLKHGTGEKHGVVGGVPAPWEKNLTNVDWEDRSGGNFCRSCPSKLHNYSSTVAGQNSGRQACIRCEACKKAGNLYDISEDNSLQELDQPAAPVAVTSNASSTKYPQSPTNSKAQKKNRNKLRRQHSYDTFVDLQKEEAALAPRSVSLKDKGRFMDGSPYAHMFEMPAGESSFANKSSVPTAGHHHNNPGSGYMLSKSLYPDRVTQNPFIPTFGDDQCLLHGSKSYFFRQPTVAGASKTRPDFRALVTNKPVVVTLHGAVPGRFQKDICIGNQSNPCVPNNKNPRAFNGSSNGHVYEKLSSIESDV
Source text: as §1, §2, §3, §4, §5, §6, §7, §8

NR1A/2C NMDA receptor = NR1A/2C NMDA receptor (Rattus norvegicus, UniProt P35439+Q00961); experiment: Xenopus oocyte expression system, two-electrode voltage clamp, NR1A/2C; type: cell-based
Chain of NR1A/2C NMDA receptor (Q00961 20-1237, other chains not shown): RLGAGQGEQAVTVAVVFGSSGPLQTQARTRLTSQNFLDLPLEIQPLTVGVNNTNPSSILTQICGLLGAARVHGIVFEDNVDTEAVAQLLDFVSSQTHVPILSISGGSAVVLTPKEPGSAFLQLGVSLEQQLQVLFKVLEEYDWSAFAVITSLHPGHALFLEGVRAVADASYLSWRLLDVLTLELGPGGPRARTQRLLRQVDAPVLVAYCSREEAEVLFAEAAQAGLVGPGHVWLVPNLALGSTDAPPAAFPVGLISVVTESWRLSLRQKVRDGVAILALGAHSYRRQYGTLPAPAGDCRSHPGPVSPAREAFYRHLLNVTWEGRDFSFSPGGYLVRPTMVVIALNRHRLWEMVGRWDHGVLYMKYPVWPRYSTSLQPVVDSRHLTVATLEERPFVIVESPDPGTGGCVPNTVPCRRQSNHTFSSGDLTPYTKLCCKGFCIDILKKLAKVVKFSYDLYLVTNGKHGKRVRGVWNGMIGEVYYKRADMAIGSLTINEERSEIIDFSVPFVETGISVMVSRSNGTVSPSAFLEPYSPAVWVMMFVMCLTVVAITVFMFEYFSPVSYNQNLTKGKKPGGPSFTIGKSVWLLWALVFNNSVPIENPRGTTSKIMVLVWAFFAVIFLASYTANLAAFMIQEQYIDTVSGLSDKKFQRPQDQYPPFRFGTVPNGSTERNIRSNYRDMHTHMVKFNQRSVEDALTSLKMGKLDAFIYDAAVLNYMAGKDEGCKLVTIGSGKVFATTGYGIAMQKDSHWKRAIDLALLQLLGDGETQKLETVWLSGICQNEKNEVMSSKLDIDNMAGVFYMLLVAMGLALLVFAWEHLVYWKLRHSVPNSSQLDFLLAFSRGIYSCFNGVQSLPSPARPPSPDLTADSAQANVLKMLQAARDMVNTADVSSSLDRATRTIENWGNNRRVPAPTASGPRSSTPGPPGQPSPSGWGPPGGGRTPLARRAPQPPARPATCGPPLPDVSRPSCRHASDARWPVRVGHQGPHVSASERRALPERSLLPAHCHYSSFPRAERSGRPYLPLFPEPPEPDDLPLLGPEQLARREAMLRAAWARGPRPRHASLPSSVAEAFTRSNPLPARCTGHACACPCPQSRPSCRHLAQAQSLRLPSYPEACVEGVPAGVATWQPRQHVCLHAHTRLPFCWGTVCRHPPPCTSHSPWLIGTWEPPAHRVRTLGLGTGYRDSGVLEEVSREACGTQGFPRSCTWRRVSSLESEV
Source text: as §1, §2, §3, §4, §5, §6, §7, §8

[1] = cloned NR1A/2A subunits expressed in Xenopus oocytes, inhibition of agonist-evoked membrane current, read-out: 1A/2A IC50
[2] = cloned NR1A/2B subunits expressed in Xenopus oocytes, inhibition of agonist-evoked membrane current, read-out: 1A/2B IC50
[3] = cloned NR1A/2C subunits expressed in Xenopus oocytes, inhibition of agonist-evoked membrane current, read-out: 1A/2C IC50

Compound | melting point | other results
CC(CCO)N1CCC(Cc2ccccc2)CC1 (stereo not shown) [Ex. 84, 4-Benzyl-1-(3-hydroxy-1-methylpropyl)piperidine] | 74 to 76 °C | IC50 (NR1A/2A NMDA receptor; [1]): 270 µM; IC50 (NR1A/2B NMDA receptor; [2]): 6 µM; IC50 (NR1A/2C NMDA receptor; [3]): > 300 µM
c1ccc(OCCCN2CCc3c([nH]c4ccccc34)C2)cc1 [Ex. 25, 2-(3-Phenoxypropyl)-1,2,3,4-tetrahydro-9H-pyrido[3,4-b]indole] | 123 to 124 °C | IC50 (NR1A/2A NMDA receptor; [1]): 60 µM; IC50 (NR1A/2B NMDA receptor; [2]): 9 µM; IC50 (NR1A/2C NMDA receptor; [3]): 175 µM
c1ccc(OCCN2CCc3ccccc3C2)cc1 (as salt: hydrochloride) [Ex. 18, N-(2-Phenoxyethyl)-1,2,3,4-tetrahydroisoquinoline] | 181 to 182 °C | 
O=C(c1ccccc1O)C1CCN(CCCO)CC1 [Example 79, 4-(2-Hydroxybenzoyl)-1-(3-hydroxypropyl)piperidine] | 77 to 80 °C | 
OC1(Cc2ccccc2)CCN(CCCc2ccccc2)CC1 (as salt: hydrochloride) [Ex. 16, 4-Benzyl-4-hydroxy-1-(3-phenylpropyl)piperidine] | 156 to 157 °C | 
C[C@@H](CO)CN1CCC(Cc2ccc(F)cc2)CC1 (as salt: hydrochloride) [Ex. 92, (R)-4-(4-Fluorobenzyl)-1-(3-hydroxy-2-methylpropyl) piperidine hydrochloride] | 128 to 130 °C | 
O=c1[nH]c2ccc(OCCCN3CCc4ccccc4C3)cc2[nH]1 (as salt: hydrochloride) [Ex. 108, N-(3-(2-oxobenzimidazol-5-oxy)propyl)-1,2,3,4-tetrahydroisoquinoline] | 210 to 215 °C (dec.) | 
OCCN1CCC(Cc2ccccc2)CC1 [Ex. 82, 4-Benzyl-1-(2-hydroxyethyl)piperidine] | 62 to 64 °C | IC50 (NR1A/2A NMDA receptor; [1]): 290 µM; IC50 (NR1A/2B NMDA receptor; [2]): 3.3 µM; IC50 (NR1A/2C NMDA receptor; [3]): > 300 µM
Clc1ccc(CC2CCN(C3CCc4ccccc4C3)CC2)cc1 (stereo not shown) (as salt: hydrochloride) [Example 98, 4-(4-Chlorobenzyl)-1-(tetralin-2-yl)piperidine hydrochloride] | 243 to 245 °C (dec.) | 
OCCCCN1CCC(Cc2ccccc2)CC1 (as salt: hydrobromid) [Ex. 86, 4-Benzyl-1-(4-hydroxybutyl)piperidine hydrobromide] | 129 to 130 °C | 
Cl.Oc1ccc(OCCN2CCC(C[C@]34C[C@H]5C[C@H](C[C@H](C5)C3)C4)CC2)cc1 [Ex. 107, 4-(1-Adamantylmethyl)-1-(2-(4-hydroxyphenoxy)ethyl)piperidine] | 178 to 179 °C | IC50 (NR1A/2A NMDA receptor; [1]): 250 µM; IC50 (NR1A/2B NMDA receptor; [2]): 160 µM; IC50 (NR1A/2C NMDA receptor; [3]): 75 µM
CC(C)(O)CCN1CCC(Cc2ccccc2)CC1.Cl [Ex. 102, 4-benzyl-1-(3-hydroxy-3-methylbutyl) piperidine hydrochloride] | 136 to 138 °C | IC50 (NR1A/2A NMDA receptor): > 300 µM; IC50 (NR1A/2B NMDA receptor): 3.5 µM; IC50 (NR1A/2C NMDA receptor): > 300 µM
CC(O)CCN1CCC(Cc2ccc([N+](=O)[O-])cc2)CC1.Cl (stereo not shown) [Ex. 101, 4-(4-nitrobenzyl)-1-(3-hydroxybutyl) piperidine hydrochloride] | 105 to 107 °C | IC50 (NR1A/2A NMDA receptor; [1]): 260 µM; IC50 (NR1A/2B NMDA receptor; [2]): 280 µM
OCCCN1CCC(Cc2ccccc2)CC1 (as salt: hydrobromid) [Ex. 83, 4-Benzyl-1-(3-hydroxypropyl)piperidine hydrobromide] | 122 to 124 °C | 
COc1ccc(C(=O)C2CCN(CCCO)CC2)cc1 (as salt: hydrobromid) [Example 78, 1-(3-Hydroxypropyl)-4-(4-methoxybenzoyl)piperidine] | 148 to 151 °C | 
OCCCN1CCC(Cc2ccc(F)cc2)CC1 (as salt: hydrobromid) [Ex. 90, 4-(4-Fluorobenzyl)-1-(3-hydroxypropyl) piperidine hydrobromide] | 108 to 110 °C | 
c1ccc(OCCCN2CCc3ccccc3C2)cc1 (as salt: hydrochloride) [Ex. 19, N-(3-Phenoxypropyl)-1,2,3,4-tetrahydroisoquinoline] | 194 to 195 °C | 
Br.c1ccc(CC2CCCN(CCOc3ccccc3)C2)cc1 (stereo not shown) | 93 to 94 °C | 
c1ccc(CCCN2CCc3c([nH]c4ccccc34)C2)cc1 [Ex. 26, 2-(3-Phenylpropyl)-1,2,3,4-tetrahydro-9H-pyrido[3,4-b]indole] | 130 to 131 °C | IC50 (NR1A/2A NMDA receptor; [1]): 30 µM; IC50 (NR1A/2B NMDA receptor; [2]): 15 µM; IC50 (NR1A/2C NMDA receptor; [3]): 105 µM
COc1ccc(CC2CCN(CCCO)CC2)cc1 (as salt: hydrobromid) [Ex. 93, 1-(3-Hydroxypropyl)-4-(4-methoxybenzyl) piperidine hydrobromide] | 129 to 131 °C | 
CC(O)CCN1CCC(Cc2ccc(F)cc2)CC1 (stereo not shown) (as salt: hydrochloride) [Ex. 91, 4-(4-Fluorobenzyl)-1-(3-hydroxybutyl) piperidine hydrochloride] | 99 to 103 °C | 
Br.Clc1ccc(CCN2CCCC(Cc3ccccc3)C2)cc1 (stereo not shown) | 143 to 145 °C | 

Further lines, with some results ahead:

melting point | Compound | other results
214 to 215 °C (dec.) | Br.Fc1ccc(OCCNN2CCC(Cc3ccc(Cl)cc3)CC2)cc1 [Ex. 106, 4-(4-Chlorobenzyl)-1-(N-(2-(4-fluorophenoxy)ethyl)amino)piperidine hydrobromide] | IC50 (NR1A/2A NMDA receptor; [1]): 8.5 µM; IC50 (NR1A/2B NMDA receptor; [2]): 5 µM; IC50 (NR1A/2C NMDA receptor; [3]): 23 µM
155 to 160 °C | CC(O)CCN1CCC(Cc2ccc(N)cc2)CC1 (stereo not shown) (as salt: hydrochloride) [Ex. 105, 4-(4-aminobenzyl)-1-(3-hydroxy-butyl) piperidine hydrochloride] | 
188 to 190 °C | O=C(CCCN1CCc2c([nH]c3ccccc23)C1)c1ccc(F)cc1 | 
138 to 141 °C | Cl.O=C(c1ccc(F)cc1)C1CCN(CCOc2ccc(F)cc2)CC1 | 
92 to 94 °C | OCC(O)CN1CCC(Cc2ccccc2)CC1 (stereo not shown) [Ex. 85, 4-Benzyl-1-(2,3-dihydroxypropyl)piperidine] | IC50 (NR1A/2A NMDA receptor; [1]): > 300 µM; IC50 (NR1A/2B NMDA receptor; [2]): 6 µM; IC50 (NR1A/2C NMDA receptor; [3]): > 300 µM
148 to 149 °C | Br.c1ccc(CC2CCCN(CCCOc3ccccc3)C2)cc1 (stereo not shown) | 
105 to 107 °C | Br.c1ccc(CCCCN2CCCC(Cc3ccccc3)C2)cc1 (stereo not shown) | 
153 to 155 °C | Oc1ccc(CCNC2=NCC(Cc3ccccc3)CN2)cc1 (stereo not shown) [Ex. 103, 2-[2-(4-Hydroyphenyl)ethylamino]-5-benzyl-1,3-diazacyclohexene] | IC50 (NR1A/2A NMDA receptor; [1]): 3.5 µM; IC50 (NR1A/2B NMDA receptor; [2]): 0.2 µM; IC50 (NR1A/2C NMDA receptor; [3]): 58 µM
137 to 142 °C | Br.c1ccc(CCN2CCCC(Cc3ccccc3)C2)cc1 (stereo not shown) | 
106 to 108 °C | O=C(c1ccc(F)cc1)C1CCN(CCCO)CC1 [Example 77, 4-(p-fluorobenzoyl)-1-(3-hydroxypropyl)piperidine] | 
